Results taken from patent US20250163104A1, “MACROCYCLIC IMMUNOMODULATORS” (priority 2021, published 2025).
Where a SMILES comes first, the peptide text is derived from it. Bridges are numbered along the chain shown (N, C = ends). [ ]: non-standard residue; d: D form. The star is where a group is joined. ξ: configuration not given here. Phe(3-CF3) = N[C@@H](Cc1cccc(C(F)(F)F)c1)C(=O)O; Phe(4-COOH) = N[C@@H](Cc1ccc(C(=O)O)cc1)C(=O)O; Bip = N[C@@H](Cc1ccc(-c2ccccc2)cc1)C(=O)O; Phe(3-Me) = Cc1cccc(C[C@H](N)C(=O)O)c1; hArg = N=C(N)NCCCC[C@H](N)C(=O)O; 4Pal = N[C@@H](Cc1ccncc1)C(=O)O; Cha = N[C@@H](CC1CCCCC1)C(=O)O; Cit = NC(=O)NCCC[C@H](N)C(=O)O; Gly(cPr) = N[C@H](C(=O)O)C1CC1; dCha = N[C@H](CC1CCCCC1)C(=O)O; Chg = N[C@H](C(=O)O)C1CCCCC1; Hpra = C#CCC[C@H](N)C(=O)O; dDab = NCC[C@@H](N)C(=O)O; Carboxymethyl = O=C(O)C*; Nle = CCCC[C@H](N)C(=O)O; Orn = NCCC[C@H](N)C(=O)O; Pra = C#CC[C@H](N)C(=O)O; Dab = NCC[C@H](N)C(=O)O; Dap = NC[C@H](N)C(=O)O; ξV = CC(C)C(N)C(=O)O; ξS = NC(CO)C(=O)O

Molecular target: T1, human PD-1 / PD-L1-Ig binding on Jurkat cell line over-expressing human PD-1 (Jurkat-PD-1) (Homo sapiens, UniProt Q15116)
T1 construct: expressed in transfected cells; host or cells: Jurkat
T1 sequence (Q15116 25-288): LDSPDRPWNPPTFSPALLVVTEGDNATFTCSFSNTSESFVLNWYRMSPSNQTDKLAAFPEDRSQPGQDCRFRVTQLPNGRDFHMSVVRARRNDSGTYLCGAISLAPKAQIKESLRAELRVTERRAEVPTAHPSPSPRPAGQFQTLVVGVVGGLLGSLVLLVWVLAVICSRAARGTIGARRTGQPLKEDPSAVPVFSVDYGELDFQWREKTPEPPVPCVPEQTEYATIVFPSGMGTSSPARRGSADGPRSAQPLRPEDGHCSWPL
Assay: Jurkat-PD-1 Cell Binding High-Content Screening Assay (CBA)
Format: cell-based
Details: Jurkat HPD1_PDL1 IC50, Jurkat-PD-1 cells, PE-labeled PD-L1-Ig 20 nM final
Outline: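 Cell-bound PE-labeled PD-L1-Ig (20 nM final, 1 h) measured by high-content imaging after fixation and Hoechst 33342 counterstain. Compound was applied first for 2 h at 37° C. to Jurkat cells over-expressing human PD-1 in DMEM with 10% FCS.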

`CC(C)C[C@H]1NC(=O)[C@H](CCCN)NC(=O)[C@H](C(C)C)NC(=O)[C@H](Cc2ccc(-c3ccccc3)cc2)NC(=O)[C@H](C2CCCCC2)NC(=O)[C@H](Cc2c[nH]c3ccccc23)NC(=O)[C@H](CC(=O)O)NC(=O)[C@H](Cc2ccc(OCC(=O)O)cc2)NC(=O)[C@H](CN)NC(=O)CSC[C@@H](C(=O)N[C@@H](C)C(N)=O)NC(=O)[C@H]([C@@H](C)O)NC(=O)[C@H](C(C)C)NC(=O)[C@H](CC2CCCCC2)NC(=O)[C@H](CCN)NC1=O` [Compound 1730] ({CH2CO}-[Dap]Y(Carboxymethyl)DW[Chg][Bip]V[Orn][dL][Dab][Cha]VTCA-NH2; thioether N-14) was tested, and the IC50 was 32.4 nM.

Same assay, conditions: Jurkat-PD-1 cells, PE-labeled PD-L1-Ig 20 nM final; read-out: Jurkat HPD1_PDL1 IC50

First: Cc1cccc(C[C@@H]2NC(=O)[C@H](CC(=O)O)NC(=O)[C@H](Cc3ccc(O)cc3)NC(=O)[C@H](CC(N)=O)NC(=O)CSC[C@@H](C(N)=O)NC(=O)[C@H]([C@@H](C)O)NC(=O)[C@H](C(C)C)NC(=O)[C@H](CC(C)C)NC(=O)[C@H](CCN)NC(=O)[C@@H](CC(C)C)NC(=O)[C@H](CCCN)NC(=O)[C@H](C(C)C)NC(=O)[C@H](Cc3ccc(-c4ccccc4)cc3)NC(=O)[C@H](C(C)C)NC2=O)c1 [Compound 1648] ({CH2CO}-NYD[Phe(3-Me)]V[Bip]V[Orn][dL][Dab]LVTC-NH2; thioether N-14)
Second: C#CCC[C@@H]1NC(=O)[C@@H](CC(C)C)NC(=O)[C@H](CCCN)NC(=O)[C@H](C(C)C)NC(=O)[C@H](Cc2ccc(-c3ccccc3)cc2)NC(=O)[C@H](C(C)C)NC(=O)[C@H](Cc2cccc(C)c2)NC(=O)[C@H](CC(=O)O)NC(=O)[C@H](Cc2ccc(C(=O)O)cc2)NC(=O)[C@H](CN)NC(=O)CSC[C@@H](C(=O)N[C@@H](CCN)C(N)=O)NC(=O)[C@H]([C@@H](C)O)NC(=O)[C@H](C(C)C)NC(=O)[C@H](CC2CCCCC2)NC1=O [Compound 2025] ({CH2CO}-[Dap][Phe(4-COOH)]D[Phe(3-Me)]V[Bip]V[Orn][dL][Hpra][Cha]VTC[Dab]-NH2; thioether N-14)
The IC50 of the first is 6.5-fold higher: 97 nM for the first, 15 nM for the second. The second is the more potent here.

`CC(C)[C@@H]1NC(=O)[C@H](Cc2c[nH]c3ccccc23)NC(=O)[C@H](CC(=O)O)NC(=O)[C@H](Cc2ccncc2)NC(=O)[C@H](Cc2ccc(OCC(=O)O)cc2)NC(=O)CSC[C@@H](C(=O)N[C@@H](C)C(N)=O)NC(=O)[C@H]([C@@H](C)O)NC(=O)[C@H](C(C)C)NC(=O)[C@H](CC2CCCCC2)NC(=O)[C@H](CCN)NC(=O)[C@@H](CC2CCCCC2)NC(=O)[C@H](CCCN)NC(=O)[C@H](CCC(=O)O)NC(=O)[C@H](Cc2ccc(-c3ccccc3)cc2)NC1=O` [Compound 1441] ({CH2CO}-Y(Carboxymethyl)[4Pal]DWV[Bip]E[Orn][dCha][Dab][Cha]VTCA-NH2; thioether N-14) and `COc1cccc(C[C@@H]2NC(=O)[C@H](CC(=O)O)NC(=O)[C@H](Cc3ccc(OCC(=O)O)cc3)NC(=O)[C@H](Cc3ccncc3)NC(=O)CSC[C@@H](C(=O)N[C@@H](C)C(N)=O)NC(=O)[C@H]([C@@H](C)O)NC(=O)[C@H](C(C)C)NC(=O)[C@H](CC3CCCCC3)NC(=O)[C@H](CCN)NC(=O)[C@@H](CC(C)C)NC(=O)[C@H](CCCN)NC(=O)[C@H](CCC(=O)O)NC(=O)[C@H](Cc3ccc(-c4ccccc4)cc3)NC(=O)[C@H](C(C)C)NC2=O)c1` [Compound 1544] are within 1.5-fold of each other in IC50: 13.4 nM for the first, 10.5 nM for the second.

First: CC(C)C[C@H]1NC(=O)[C@H](CCCN)NC(=O)[C@H](CCCN)NC(=O)[C@H](Cc2ccc(-c3ccccc3)cc2)NC(=O)[C@H](C(C)C)NC(=O)[C@H](Cc2c[nH]c3ccccc23)NC(=O)[C@H](CC(=O)O)NC(=O)[C@H](Cc2ccncc2)NC(=O)[C@H](CN)NC(=O)CSC[C@@H](C(=O)N[C@@H](C)C(N)=O)NC(=O)[C@H]([C@@H](C)O)NC(=O)[C@H](C(C)C)NC(=O)[C@H](CC2CCCCC2)NC(=O)[C@H](CCN)NC1=O [Compound 1386] ({CH2CO}-[Dap][4Pal]DWV[Bip][Orn][Orn][dL][Dab][Cha]VTCA-NH2; thioether N-14)
Second: CC(C)C[C@H]1NC(=O)[C@H](CCCN)NC(=O)[C@H](CCCNC(N)=O)NC(=O)[C@H](Cc2ccc(-c3ccccc3)cc2)NC(=O)[C@H](C2CC2)NC(=O)[C@H](Cc2c[nH]c3ccccc23)NC(=O)[C@H](CC(=O)O)NC(=O)[C@H](Cc2ccc(OCC(=O)O)cc2)NC(=O)[C@H](CN)NC(=O)CSC[C@@H](C(=O)N[C@@H](C)C(N)=O)NC(=O)[C@H]([C@@H](C)O)NC(=O)[C@H](C(C)C)NC(=O)[C@H](CC2CCCCC2)NC(=O)[C@H](CCN)NC1=O [Compound 1369] ({CH2CO}-[Dap]Y(Carboxymethyl)DW[Gly(cPr)][Bip][Cit][Orn][dL][Dab][Cha]VTCA-NH2; thioether N-14)
The IC50 of the first is 1.8-fold lower: 10.8 nM for the first, 19.9 nM for the second.

`CCC(C)[C@@H]1NC(=O)[C@H](Cc2ccc(-c3ccccc3)cc2)NC(=O)[C@H](C(C)C)NC(=O)[C@H](Cc2cccc(C)c2)NC(=O)[C@H](CC(=O)O)NC(=O)[C@H](Cc2ccc(OCC(=O)O)cc2)NC(=O)[C@H](Cc2ccc(OCC(=O)O)cc2)NC(=O)CSC[C@@H](C(=O)N[C@@H](C)C(N)=O)NC(=O)[C@H](CO)NC(=O)[C@H](C(C)C)NC(=O)[C@H](CC2CCCCC2)NC(=O)[C@H](CCN)NC(=O)[C@@H](CC(C)C)NC(=O)[C@H](CCCN)NC1=O` (stereo partly drawn) [Compound 2534] and `COc1cccc(C[C@@H]2NC(=O)[C@H](CC(=O)O)NC(=O)[C@H](Cc3ccc(O)cc3)NC(=O)[C@H](Cc3ccncc3)NC(=O)CSC[C@@H](C(=O)N[C@@H](C)C(N)=O)NC(=O)[C@H]([C@@H](C)O)NC(=O)[C@H](C(C)C)NC(=O)[C@H](CC3CCCCC3)NC(=O)[C@H](CCN)NC(=O)[C@@H](CC(C)C)NC(=O)[C@H](CCCN)NC(=O)[C@H](CCC(=O)O)NC(=O)[C@H](Cc3ccc(-c4ccccc4)cc3)NC(=O)[C@H](C(C)C)NC2=O)c1` [Compound 1543] are within 1.5-fold of each other in IC50: 21.3 nM for the first, 27.7 nM for the second.

First: C#CC[C@H](NC(=O)[C@H](CCN)NC(=O)[C@@H]1CSCC(=O)N[C@@H](CN)C(=O)N[C@@H](Cc2ccc(OCC(=O)O)cc2)C(=O)N[C@@H](CC(=O)O)C(=O)N[C@@H](Cc2cccc(C)c2)C(=O)N[C@@H](C(C)C)C(=O)N[C@@H](Cc2ccc(-c3ccccc3)cc2)C(=O)N[C@@H](CCCNC(N)=O)C(=O)N[C@@H](CCCN)C(=O)N[C@H](CC(C)C)C(=O)N[C@@H](CCN)C(=O)N[C@@H](CC2CCCCC2)C(=O)N[C@@H](C(C)C)C(=O)N[C@@H]([C@@H](C)O)C(=O)N1)C(N)=O [Compound 2261] ({CH2CO}-[Dap]Y(Carboxymethyl)D[Phe(3-Me)]V[Bip][Cit][Orn][dL][Dab][Cha]VTC[Dab][Pra]-NH2; thioether N-14)
Second: C#CCC[C@@H]1NC(=O)[C@H](CC2CCCCC2)NC(=O)[C@H](CCN)NC(=O)[C@@H](CC(C)C)NC(=O)[C@H](CCCN)NC(=O)[C@H](C(C)C)NC(=O)[C@H](Cc2ccc(-c3ccccc3)cc2)NC(=O)[C@H](C(C)C)NC(=O)[C@H](Cc2cccc(C)c2)NC(=O)[C@H](CC(=O)O)NC(=O)[C@H](Cc2ccc(C(=O)O)cc2)NC(=O)[C@H](CN)NC(=O)CSC[C@@H](C(=O)N[C@@H](CCN)C(N)=O)NC(=O)[C@H]([C@@H](C)O)NC1=O [Compound 2027] ({CH2CO}-[Dap][Phe(4-COOH)]D[Phe(3-Me)]V[Bip]V[Orn][dL][Dab][Cha][Hpra]TC[Dab]-NH2; thioether N-14)
The IC50 of the first is 1.6-fold higher: 16 nM for the first, 10.3 nM for the second.

First: Cc1cccc(C[C@@H]2NC(=O)[C@H](CC(=O)O)NC(=O)[C@H](Cc3ccc(OCC(=O)O)cc3)NC(=O)[C@H](CCCCNC(=N)N)NC(=O)CSC[C@@H](C(=O)N[C@@H](CCCN)C(=O)NC(CO)C(N)=O)NC(=O)[C@H](CO)NC(=O)C(C(C)C)NC(=O)[C@H](CC3CCCCC3)NC(=O)[C@H](CCN)NC(=O)[C@@H](CC(C)C)NC(=O)[C@H](CCCN)NC(=O)[C@H](CCCNC(N)=O)NC(=O)[C@H](Cc3ccc(-c4ccccc4)cc3)NC(=O)[C@H](C(C)C)NC2=O)c1 (stereo partly drawn) [Compound 2592] ({CH2CO}-[hArg]Y(Carboxymethyl)D[Phe(3-Me)]V[Bip][Cit][Orn][dL][Dab][Cha][ξV]SC[Orn][ξS]-NH2; thioether N-14)
Second: Cc1cccc(C[C@@H]2NC(=O)[C@H](CC(=O)O)NC(=O)[C@H](Cc3ccc(C(=O)O)cc3)NC(=O)[C@H](CN)NC(=O)CSC[C@@H](C(=O)N[C@@H](CCN)C(N)=O)NC(=O)[C@@H](CCN)NC(=O)[C@H](C(C)C)NC(=O)[C@H](CC3CCCCC3)NC(=O)[C@H](CCN)NC(=O)[C@@H](CC(C)C)NC(=O)[C@H](CCCN)NC(=O)[C@H](C(C)C)NC(=O)[C@H](Cc3ccc(-c4ccccc4)cc3)NC(=O)[C@H](C(C)C)NC2=O)c1 [Compound 2029] ({CH2CO}-[Dap][Phe(4-COOH)]D[Phe(3-Me)]V[Bip]V[Orn][dL][Dab][Cha]V[dDab]C[Dab]-NH2; thioether N-14)
The IC50 of the first is 3.7-fold higher: 15.3 nM for the first, 4.1 nM for the second. The second is the more potent here.

`CCCC[C@@H]1NC(=O)[C@H](CCN)NC(=O)[C@@H](CC(C)C)NC(=O)[C@H](CCCN)NC(=O)[C@H]([C@@H](C)CC)NC(=O)[C@H](Cc2ccc(-c3ccccc3)cc2)NC(=O)[C@H](C(C)C)NC(=O)[C@H](Cc2c[nH]c3ccccc23)NC(=O)[C@H](CC(=O)O)NC(=O)[C@H](Cc2ccc(O)cc2)NC(=O)[C@H](Cc2ccc(OCC(=O)O)cc2)NC(=O)CSC[C@@H](C(=O)N[C@@H](C)C(N)=O)NC(=O)[C@H]([C@@H](C)O)NC(=O)[C@H](C(C)C)NC1=O` [Compound 1168] ({CH2CO}-Y(Carboxymethyl)YDWV[Bip]I[Orn][dL][Dab][Nle]VTCA-NH2; thioether N-14) and `CC(C)C[C@H]1NC(=O)[C@H](CCCN)NC(=O)[C@H](CCC(=O)O)NC(=O)[C@H](Cc2ccc(-c3ccccc3)cc2)NC(=O)[C@H](C(C)C)NC(=O)[C@H](Cc2cccc(C(F)(F)F)c2)NC(=O)[C@H](CC(=O)O)NC(=O)[C@H](Cc2ccc(O)cc2)NC(=O)[C@H](CC(N)=O)NC(=O)CSC[C@@H](C(=O)N[C@@H](C)C(N)=O)NC(=O)[C@H]([C@@H](C)O)NC(=O)[C@H](C(C)C)NC(=O)[C@H](CC2CCCCC2)NC(=O)[C@H](CCN)NC1=O` [Compound 1457] ({CH2CO}-NYD[Phe(3-CF3)]V[Bip]E[Orn][dL][Dab][Cha]VTCA-NH2; thioether N-14) are within 1.5-fold of each other in IC50: 26.3 nM for the first, 19.8 nM for the second.
